Columns and labels:
[1] = system: human breast cancer cells (MDA-MB-453); experiment: scratch assay, migration of MDA-MB-453 cells; assay type: cell-based; settings: MDA-MB-453, 10 μM, 48 hours; control group 32.42 ± 2.04
Procedure, shortened: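 Confluent MDA-MB-453 monolayers were scratched, then treated with peptide at 10 μM in 2% FBS medium for 48 h, with a PBS control and triplicate wells. Migration rate (%) was taken as (original − current scratch width)/original width ×100 from images.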

vimentin = vimentin expression in SK-HEP-1 cells (ELISA); assay type: cell-based, human; settings: SK-HEP-1, 10 μM, 24 hours, control group 1.2 ± 0.01
Description: (§1) SK-HEP-1 cells were cultured in vitro, cells in the logarithmic growth phase were collected, and the cells were seeded evenly in a 24-well plate at a density of 1-3×10^5 cells/well. The cells were cultured in a cell incubator for 4-5 h. PBS was added to the control group. PBS containing polypeptide or derivative thereof (N1-N12) was added to the treatment group. The final concentration of the polypeptide or derivative thereof in the well was 10 μM. After incubating for 24 hours, the cells were collected and the total protein was extracted. ELISA was used to detect the content of fibronectin in total protein.
The experimental method for testing the inhibition on the expression of vimentin in human liver adenocarcinoma cells (SK-HEP-1) by the polypeptide or derivative thereof (N1-N12) was as described in Example 19.

[2] = effect on coagulation function in mice (ACT); assay type: in vivo, C57BL/6J mice; settings: 200 mg/kg tail vein once a day until Day 24, blood on Day 25; control group 73.50 ± 7.15
Description: C57BL/6J mice were used as experimental subjects (purchased from Chengdu Dashuo Experimental Animal Co., Ltd., male, weighing 16-17 g). Sterile saline or peptide drugs were injected via the tail vein once a day until Day 24. The mice in the control group were injected with sterile saline, and the mice in the administration groups (N1-N12) were injected with polypeptide drugs (200 mg/kg). There were three experimental animals in each group. On Day 25, the eyeballs were removed and blood ([…]) was taken. The coagulation function of the mice was detected by the Abbott i-STAT blood gas analyzer with the ACT test card.

[3] = system: human lung cancer cells (A549) subcutaneous xenograft; experiment: lung cancer subcutaneous xenograft animal model, intravenous injection; assay type: in vivo, mice (BALB/c-nu/nu); settings: intravenous 60 mg/kg once every other day, 20 days
Procedure, shortened: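 Female BALB/c-nu/nu mice (4-6 weeks) inoculated subcutaneously with ~2×10^6 A549 cells; grouped once tumours exceeded 100 mm^3. Peptides given intravenously at 60 mg/kg for 20 days versus model control. Tumour weight and volume measured at dissection; body weight recorded every other day.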

[4] = system: human melanoma cells (A375); experiment: scratch assay, migration of A375 cells; assay type: cell-based; settings: A375, 10 μM, 48 hours; control group 44.03 ± 6.21
Procedure, shortened: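 Monolayers scratched, washed with PBS and cultured 48 hours in 2% FBS medium with polypeptides N1-N54 at 10 μM or PBS control, three wells per group. Migration rate (%) = (original − current scratch width)/original width×100, from imaged scratch widths.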

[5] = system: human lung cancer cells (A549) subcutaneous xenograft; experiment: lung cancer subcutaneous xenograft animal model, intratumoral injection; assay type: in vivo, mice (BALB/c-nu/nu); settings: intratumoral 5 mg/kg once every other day, 10 days
Procedure, shortened: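 Female BALB/c-nu/nu mice (4–6 weeks) inoculated subcutaneously with about 2×10^6 A549 cells; treatment started at tumour volume >100 mm^3. Peptides given intratumorally at 5 mg/kg every other day for 10 days (N1–N12) or 20 days (N13–N32); tumour weight and volume measured at dissection.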

[6] = system: human pancreatic cancer cells (PANC-1) subcutaneous xenograft; experiment: pancreatic cancer subcutaneous xenograft animal model, intratumoral injection; assay type: in vivo, mice (BALB/c-nu/nu); settings: PANC-1 xenograft, intratumoral 5 mg/kg once every other day, 25 days
Description: Experimental animals: 4-6 weeks old female immunodeficiency mice (BALB/c-nu/nu, Beijing Vital River Laboratory Animal Technology Co., Ltd.).
Subcutaneous xenograft animal model. The number of cells inoculated subcutaneously vin mice was about 2×10^6/200 μL. When the volume of the subcutaneous tumor was greater than 100 mm^3, the mice were randomly divided into groups and subjected to treatment. When the mass volume of the tumors in model control group reached 2000 mm^3 or the animal dies, the treatment ended. The animals were dissected, the tumors were taken out, and the weight and volume of the tumors were measured. During the period of the entire experiment, the mice were observed and the body weight was measured every other day.
The method used in the efficacy test on the pancreatic cancer subcutaneous xenograft animal model was as described in Example 5. The pancreatic cancer cells were human pancreatic cancer cells (PANC-1), and the route of administration was intratumoral injection. The experimental groups were model control group and polypeptide or derivative thereof treatment groups (N1-N12). The drug dosage of the N1-N12 treatment group was 5mg/kg, once every other day, and the treatment time was 25 days.

fibronectin = fibronectin expression in SK-HEP-1 cells (ELISA); assay type: cell-based, human; settings: SK-HEP-1, 10 μM, 24 hours, control group 1.62 ± 0.09
Description: as §1

N12: SEQ ID NO: 1 with deletion of position 18 and positions 1-2 (VRFLAKENVTQDAED)
Migration rate (%) (mean ± SD, P) [1]: 6.32 ± 1.78,*** %
Relative protein level (mean ± SD, P), vimentin (vimentin): 0.71 ± 0.03, ****
Activated clotting time (s) (mean ± SD) [2]: 75.55 ± 7.61 s
Weight of tumor (g) (mean ± SD) ([3]; control 2.53 ± 0.17): 0.85 ± 0.19 g
Volume of tumor (mm^3) (mean ± SD) ([3]; control 3373.26 ± 581.44): 1275.34 ± 221.5 mm^3
Migration rate (%) (mean ± SD, P) [4]: 12.46 ± 3.75,*** %
Weight of tumor (g) (mean ± SD) ([5]; control 1.45 ± 0.15): 0.73 ± 0.09 g
Volume of tumor (mm^3) (mean ± SD) ([5]; control 1269.32 ± 115.39): 726.15 ± 144.96 mm^3
Weight of tumor (g) (mean ± SD) ([6]; control 1.2 ± 0.11): 0.71 ± 0.09 g
Volume of tumor (mm^3) (mean ± SD) ([6]; control 1431.72 ± 174.33): 863.2 ± 129.61 mm^3
Relative protein level (mean ± SD, P), fibronectin (fibronectin): 1.23 ± 0.07,**

Reference: US20220280594A1, “APPLICATION OF POLYPEPTIDE OR DERIVATIVE THEREOF” (CHENGDU HUITAI BIOMEDICINE CO., LTD., priority 2019, published 2022)
